“Also recorded” adds a separate entry of the source.
Legend:
[1] = tested on: non-phosphorylated AKT; test: Non-phosphorylated AKT western blot in SW1990 cells; assay type: cell-based, human; conditions: data not shown
Description: Structure 1 decreased both phosphorylated AKT and phosphorylated ERK. Structure 1 had no effect on AKT or ERK (data not shown).
A method used to measure ERK and AKT is based on Welsch et al, Cell 168: 878-889 February 2017. SW1990 cells, growth driven by a G12D kRAS mutation and derived from human, pancreatic cancer cells, are plated in a 6-well plate at 1.5×10^6 cells per plate and grown overnight at 37° C. Media is replaced with serum-free media and the plate incubated an additional 24 hours. Media is replaced with media with or without compound and incubated for an additional 24 hours. EGF is added at a concentration of 10 ng/mL. After 15 minutes, cells are washed with ice cold PBS and lysed with RIPA buffer.
The lysate is processed by electrophoresis using a Mini-PROTEAN® gel mounted in a Mini-PROTEAN® Tetra Cell (cassette). Both the gel and the holding assembly (cassette) are purchased from BIORAD. The gel in the assembly is placed, electrode up, in the buffer tanks. The Tris/glycine/SDS buffer is added to both the inner buffer chamber (200 mL) and the outer buffer chamber (800 mL). […]
The membrane is placed into TTBS buffer containing SuperBlock T20 (Thermo Scientific) and incubated for 1 hour at room temperature. […] The anti pERK detected both pERK 1 and 2 (T202/Y204). […]

[2] = molecular target: AKT1 (Homo sapiens, UniProt P31749); test: Protein kinase inhibition; assay type: biochemical; conditions: tested at 3 μM
Description: (§1) The exemplary compound was also tested at 3 μM for protein kinase inhibition against the following protein kinases: AKT1, AKT2, AKT3, EGF-R, EGF-R (L858R mutation), FRAP1, GSK3B, MAPK1 (ERK2), MAPK3 (ERK1), BRAF, BRAF V599E, MAP2K1 (MEK1), MAP2K2 (MEK2), PDK1, RAF1, PI3K C2A, PI3K C2B, P13K C3, PI3K 3A, PI3K CB, PI3K CD, and PI3K CG. […] The main downstream targets for kRAS are ERK (Samatar et al., Targeting RAS-ERK signaling in cancer: promises and challenges. Nat Rev Drug Discov. 2014; 13:928-42 and Martini et al., Ann Med. 2014; 46:372-83). kRAS activates ERK and AKT leading to phosphorylated ERK and phosphorylated AKT. A compound that suppresses kRAS activity is expected to lower phosphorylated ERK and phosphorylated AKT.

[3] = molecular target: AKT2 (Homo sapiens, UniProt P31751); test: Protein kinase inhibition; assay type: biochemical; conditions: tested at 3 μM
Description: as §1

[4] = molecular target: AKT3 (Homo sapiens, UniProt Q9Y243); test: Protein kinase inhibition; assay type: biochemical; conditions: tested at 3 μM
Description: as §1

[5] = molecular target: BRAF (Homo sapiens, UniProt P15056); test: Protein kinase inhibition; assay type: biochemical; conditions: tested at 3 μM
Description: as §1

[6] = molecular target: BRAF V599E (Homo sapiens, UniProt P15056, V600E); test: Protein kinase inhibition; assay type: biochemical; conditions: tested at 3 μM
Description: as §1

[7] = molecular target: EGF-R (Homo sapiens, UniProt P00533); test: Protein kinase inhibition; assay type: biochemical; conditions: tested at 3 μM
Description: as §1

[8] = molecular target: EGF-R (L858R mutation) (Homo sapiens, UniProt P00533, L858R); test: Protein kinase inhibition; assay type: biochemical; conditions: tested at 3 μM
Description: as §1

[9] = molecular target: FRAP1 (Homo sapiens, UniProt P42345); test: Protein kinase inhibition; assay type: biochemical; conditions: tested at 3 μM
Description: as §1

[10] = molecular target: GSK3B (Homo sapiens, UniProt P49841); test: Protein kinase inhibition; assay type: biochemical; conditions: tested at 3 μM
Description: as §1

[11] = molecular target: MAP2K1 (MEK1) (Homo sapiens, UniProt Q02750); test: Protein kinase inhibition; assay type: biochemical; conditions: tested at 3 μM
Description: as §1

[12] = molecular target: MAP2K2 (MEK2) (Homo sapiens, UniProt P36507); test: Protein kinase inhibition; assay type: biochemical; conditions: tested at 3 μM
Description: as §1

[13] = molecular target: MAPK1 (ERK2) (Homo sapiens, UniProt P28482); test: Protein kinase inhibition; assay type: biochemical; conditions: tested at 3 μM
Description: as §1

[14] = molecular target: MAPK3 (ERK1) (Homo sapiens, UniProt P27361); test: Protein kinase inhibition; assay type: biochemical; conditions: tested at 3 μM
Description: as §1

[15] = molecular target: P13K C3 (Homo sapiens, UniProt Q8NEB9); test: Protein kinase inhibition; assay type: biochemical; conditions: tested at 3 μM
Description: as §1

[16] = molecular target: PDK1 (Homo sapiens, UniProt O15530); test: Protein kinase inhibition; assay type: biochemical; conditions: tested at 3 μM
Description: as §1

[17] = molecular target: PI3K 3A (Homo sapiens, UniProt P42336); test: Protein kinase inhibition; assay type: biochemical; conditions: tested at 3 μM
Description: as §1

[18] = molecular target: PI3K C2A (Homo sapiens, UniProt O00443); test: Protein kinase inhibition; assay type: biochemical; conditions: tested at 3 μM
Description: as §1

[19] = molecular target: PI3K C2B (Homo sapiens, UniProt O00750); test: Protein kinase inhibition; assay type: biochemical; conditions: tested at 3 μM
Description: as §1

[20] = molecular target: PI3K CB (Homo sapiens, UniProt P42338); test: Protein kinase inhibition; assay type: biochemical; conditions: tested at 3 μM
Description: as §1

[21] = molecular target: PI3K CD (Homo sapiens, UniProt O00329); test: Protein kinase inhibition; assay type: biochemical; conditions: tested at 3 μM
Description: as §1

[22] = molecular target: PI3K CG (Homo sapiens, UniProt P48736); test: Protein kinase inhibition; assay type: biochemical; conditions: tested at 3 μM
Description: as §1

[23] = molecular target: RAF1 (Homo sapiens, UniProt P04049); test: Protein kinase inhibition; assay type: biochemical; conditions: tested at 3 μM
Description: as §1

Chain of EGF-R (P00533 25-1210, species assumed): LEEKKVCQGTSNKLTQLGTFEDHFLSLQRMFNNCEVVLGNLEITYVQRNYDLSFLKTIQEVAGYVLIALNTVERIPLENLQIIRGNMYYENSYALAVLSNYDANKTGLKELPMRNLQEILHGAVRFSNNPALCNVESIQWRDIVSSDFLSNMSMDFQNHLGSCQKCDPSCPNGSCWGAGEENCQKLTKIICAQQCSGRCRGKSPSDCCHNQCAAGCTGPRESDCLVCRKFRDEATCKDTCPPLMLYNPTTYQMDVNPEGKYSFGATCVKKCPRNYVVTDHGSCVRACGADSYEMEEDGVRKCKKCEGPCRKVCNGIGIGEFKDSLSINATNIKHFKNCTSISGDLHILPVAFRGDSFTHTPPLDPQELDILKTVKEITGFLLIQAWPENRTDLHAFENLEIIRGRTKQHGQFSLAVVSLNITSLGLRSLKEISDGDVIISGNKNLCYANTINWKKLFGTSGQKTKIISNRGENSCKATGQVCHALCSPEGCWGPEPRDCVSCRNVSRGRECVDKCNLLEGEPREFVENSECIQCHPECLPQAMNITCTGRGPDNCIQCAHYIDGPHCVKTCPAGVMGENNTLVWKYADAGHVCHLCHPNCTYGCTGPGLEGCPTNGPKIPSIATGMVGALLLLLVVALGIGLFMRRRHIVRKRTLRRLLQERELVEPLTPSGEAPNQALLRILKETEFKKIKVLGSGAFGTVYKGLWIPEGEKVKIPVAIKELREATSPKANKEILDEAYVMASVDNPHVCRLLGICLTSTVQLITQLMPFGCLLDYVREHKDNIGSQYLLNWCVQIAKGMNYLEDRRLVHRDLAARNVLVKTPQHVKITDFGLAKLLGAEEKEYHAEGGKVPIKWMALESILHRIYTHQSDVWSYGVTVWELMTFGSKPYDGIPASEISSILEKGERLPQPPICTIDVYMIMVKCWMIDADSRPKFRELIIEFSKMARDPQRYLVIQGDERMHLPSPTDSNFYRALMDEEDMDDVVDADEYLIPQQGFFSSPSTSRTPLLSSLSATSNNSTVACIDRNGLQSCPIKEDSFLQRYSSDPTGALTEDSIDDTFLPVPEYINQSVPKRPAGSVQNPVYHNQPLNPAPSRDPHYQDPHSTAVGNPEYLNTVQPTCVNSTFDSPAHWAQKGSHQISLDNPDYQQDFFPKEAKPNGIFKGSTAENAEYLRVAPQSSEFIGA
Chain of PI3K 3A (P42336 whole entry): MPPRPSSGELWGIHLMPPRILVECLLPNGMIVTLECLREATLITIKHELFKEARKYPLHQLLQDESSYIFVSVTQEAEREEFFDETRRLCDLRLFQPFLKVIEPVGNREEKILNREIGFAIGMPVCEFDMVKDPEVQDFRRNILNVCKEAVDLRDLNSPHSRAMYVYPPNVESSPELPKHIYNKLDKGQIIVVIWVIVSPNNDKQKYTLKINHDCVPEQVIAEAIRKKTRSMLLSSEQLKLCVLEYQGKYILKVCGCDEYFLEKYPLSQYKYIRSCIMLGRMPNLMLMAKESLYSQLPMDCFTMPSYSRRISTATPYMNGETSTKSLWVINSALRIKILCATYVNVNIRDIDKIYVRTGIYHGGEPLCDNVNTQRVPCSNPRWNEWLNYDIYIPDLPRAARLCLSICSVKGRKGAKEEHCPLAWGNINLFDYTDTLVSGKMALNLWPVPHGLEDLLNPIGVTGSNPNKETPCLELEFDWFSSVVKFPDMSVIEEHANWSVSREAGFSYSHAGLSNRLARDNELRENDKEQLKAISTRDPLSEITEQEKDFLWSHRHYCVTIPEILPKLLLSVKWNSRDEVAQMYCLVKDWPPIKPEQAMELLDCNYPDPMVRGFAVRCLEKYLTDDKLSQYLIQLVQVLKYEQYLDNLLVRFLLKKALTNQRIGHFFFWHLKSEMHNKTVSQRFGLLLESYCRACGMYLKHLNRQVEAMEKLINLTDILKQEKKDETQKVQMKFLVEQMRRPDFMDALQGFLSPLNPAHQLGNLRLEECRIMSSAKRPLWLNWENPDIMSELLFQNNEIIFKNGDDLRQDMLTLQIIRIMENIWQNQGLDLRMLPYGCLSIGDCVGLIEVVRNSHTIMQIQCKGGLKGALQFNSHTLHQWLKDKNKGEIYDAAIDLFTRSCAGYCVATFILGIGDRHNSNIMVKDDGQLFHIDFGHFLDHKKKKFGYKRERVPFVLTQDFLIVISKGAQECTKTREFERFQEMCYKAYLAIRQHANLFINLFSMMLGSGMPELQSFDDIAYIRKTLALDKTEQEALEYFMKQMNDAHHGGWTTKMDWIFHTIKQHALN
Chain of PI3K 3A (P27986 whole entry partner): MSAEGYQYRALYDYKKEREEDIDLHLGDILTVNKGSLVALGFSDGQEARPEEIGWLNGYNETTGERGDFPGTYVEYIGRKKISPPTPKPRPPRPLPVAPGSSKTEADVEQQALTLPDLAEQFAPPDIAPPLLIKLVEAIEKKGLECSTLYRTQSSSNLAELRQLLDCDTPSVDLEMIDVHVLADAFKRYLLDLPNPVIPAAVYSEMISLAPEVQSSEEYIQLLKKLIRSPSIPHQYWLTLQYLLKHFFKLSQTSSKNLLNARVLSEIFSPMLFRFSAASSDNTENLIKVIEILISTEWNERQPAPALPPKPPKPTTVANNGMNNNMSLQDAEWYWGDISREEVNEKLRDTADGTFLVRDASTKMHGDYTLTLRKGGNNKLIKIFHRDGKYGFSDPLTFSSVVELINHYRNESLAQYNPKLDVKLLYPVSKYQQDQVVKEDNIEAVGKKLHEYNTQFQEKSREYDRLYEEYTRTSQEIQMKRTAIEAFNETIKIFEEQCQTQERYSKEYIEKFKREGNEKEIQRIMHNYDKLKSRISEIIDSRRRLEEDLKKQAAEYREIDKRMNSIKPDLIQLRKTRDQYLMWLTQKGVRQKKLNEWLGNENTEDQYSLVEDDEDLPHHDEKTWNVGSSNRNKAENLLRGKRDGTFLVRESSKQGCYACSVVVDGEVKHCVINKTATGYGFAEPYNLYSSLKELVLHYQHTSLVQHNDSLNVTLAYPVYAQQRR
Chain of MAP2K1 (MEK1) (Q02750 whole entry, species assumed): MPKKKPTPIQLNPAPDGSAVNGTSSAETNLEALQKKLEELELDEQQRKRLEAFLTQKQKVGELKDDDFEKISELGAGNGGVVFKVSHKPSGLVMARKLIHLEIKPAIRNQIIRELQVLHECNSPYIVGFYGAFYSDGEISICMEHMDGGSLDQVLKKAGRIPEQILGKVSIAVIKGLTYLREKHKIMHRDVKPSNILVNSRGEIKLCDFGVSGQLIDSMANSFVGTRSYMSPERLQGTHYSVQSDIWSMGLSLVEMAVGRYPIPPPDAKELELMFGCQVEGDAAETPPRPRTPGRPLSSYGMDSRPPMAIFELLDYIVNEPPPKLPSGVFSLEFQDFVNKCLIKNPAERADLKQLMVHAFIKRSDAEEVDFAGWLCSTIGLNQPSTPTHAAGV
Chain of MAP2K2 (MEK2) (P36507 whole entry, species assumed): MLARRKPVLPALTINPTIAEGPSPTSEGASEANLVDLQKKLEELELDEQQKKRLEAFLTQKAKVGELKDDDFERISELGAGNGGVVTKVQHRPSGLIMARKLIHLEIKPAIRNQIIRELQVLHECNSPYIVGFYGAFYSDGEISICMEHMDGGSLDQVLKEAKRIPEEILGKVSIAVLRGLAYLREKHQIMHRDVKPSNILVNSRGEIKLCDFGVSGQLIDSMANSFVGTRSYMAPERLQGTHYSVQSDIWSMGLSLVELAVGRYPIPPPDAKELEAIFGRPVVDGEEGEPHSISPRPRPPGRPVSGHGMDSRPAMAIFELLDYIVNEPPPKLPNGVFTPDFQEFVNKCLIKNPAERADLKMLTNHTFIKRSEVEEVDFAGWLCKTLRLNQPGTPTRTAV
Chain of P13K C3 (Q8NEB9 whole entry, stated change not applied): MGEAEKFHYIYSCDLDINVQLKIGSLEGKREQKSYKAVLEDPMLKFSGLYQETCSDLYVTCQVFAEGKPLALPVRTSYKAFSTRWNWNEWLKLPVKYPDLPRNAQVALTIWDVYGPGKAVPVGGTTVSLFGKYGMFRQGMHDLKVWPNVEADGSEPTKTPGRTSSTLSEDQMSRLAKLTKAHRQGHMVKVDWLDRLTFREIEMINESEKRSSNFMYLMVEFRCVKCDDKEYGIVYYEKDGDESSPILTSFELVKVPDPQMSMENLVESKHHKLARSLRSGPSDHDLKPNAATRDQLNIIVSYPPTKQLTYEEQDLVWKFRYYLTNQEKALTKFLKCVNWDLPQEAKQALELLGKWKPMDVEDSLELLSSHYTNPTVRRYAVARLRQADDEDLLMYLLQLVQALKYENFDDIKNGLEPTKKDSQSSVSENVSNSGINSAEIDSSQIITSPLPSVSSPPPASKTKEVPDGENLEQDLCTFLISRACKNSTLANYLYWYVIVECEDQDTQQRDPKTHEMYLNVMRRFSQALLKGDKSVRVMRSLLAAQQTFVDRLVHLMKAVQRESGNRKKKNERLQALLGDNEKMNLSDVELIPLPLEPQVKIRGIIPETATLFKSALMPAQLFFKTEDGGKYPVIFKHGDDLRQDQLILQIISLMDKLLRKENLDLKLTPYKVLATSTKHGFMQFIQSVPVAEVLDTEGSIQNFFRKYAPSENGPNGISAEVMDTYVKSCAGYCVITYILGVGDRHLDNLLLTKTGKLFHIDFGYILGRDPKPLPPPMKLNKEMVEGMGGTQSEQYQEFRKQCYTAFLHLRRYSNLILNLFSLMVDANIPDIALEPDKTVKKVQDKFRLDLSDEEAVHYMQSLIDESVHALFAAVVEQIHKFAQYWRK
Chain of GSK3B (P49841 whole entry, species assumed): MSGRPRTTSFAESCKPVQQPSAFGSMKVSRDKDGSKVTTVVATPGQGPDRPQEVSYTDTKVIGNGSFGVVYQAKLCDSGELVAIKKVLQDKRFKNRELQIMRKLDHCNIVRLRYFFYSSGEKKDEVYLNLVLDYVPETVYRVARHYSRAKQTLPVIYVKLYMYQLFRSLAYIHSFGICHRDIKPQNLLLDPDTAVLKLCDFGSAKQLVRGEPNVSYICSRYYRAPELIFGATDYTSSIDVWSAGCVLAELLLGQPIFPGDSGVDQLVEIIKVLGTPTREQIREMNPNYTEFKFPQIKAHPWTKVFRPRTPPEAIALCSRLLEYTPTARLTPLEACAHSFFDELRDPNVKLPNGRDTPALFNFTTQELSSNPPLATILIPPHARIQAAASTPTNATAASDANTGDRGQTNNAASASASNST

Cc1nc2c(-c3ccccc3)c(C)nn2c(NCc2ccccn2)c1Cc1ccccc1 [Structure 1]
Effect on non-phosphorylated AKT [1]: no effect; also recorded: without affecting | Kinase inhibitory activity, AKT1 [2]: No kinase inhibitory activity | Kinase inhibitory activity, AKT2 [3]: No kinase inhibitory activity | Kinase inhibitory activity, AKT3 [4]: No kinase inhibitory activity | Kinase inhibitory activity, BRAF [5]: No kinase inhibitory activity | Kinase inhibitory activity, BRAF V599E [6]: No kinase inhibitory activity | Kinase inhibitory activity, EGF-R [7]: No kinase inhibitory activity | Kinase inhibitory activity, EGF-R (L858R mutation) [8]: No kinase inhibitory activity | Kinase inhibitory activity, FRAP1 [9]: No kinase inhibitory activity | Kinase inhibitory activity, GSK3B [10]: No kinase inhibitory activity | Kinase inhibitory activity, MAP2K1 (MEK1) [11]: No kinase inhibitory activity | Kinase inhibitory activity, MAP2K2 (MEK2) [12]: No kinase inhibitory activity | Kinase inhibitory activity, MAPK1 (ERK2) [13]: No kinase inhibitory activity | Kinase inhibitory activity, MAPK3 (ERK1) [14]: No kinase inhibitory activity | Kinase inhibitory activity, P13K C3 [15]: No kinase inhibitory activity | Kinase inhibitory activity, PDK1 [16]: No kinase inhibitory activity | Kinase inhibitory activity, PI3K 3A [17]: No kinase inhibitory activity | Kinase inhibitory activity, PI3K C2A [18]: No kinase inhibitory activity | Kinase inhibitory activity, PI3K C2B [19]: No kinase inhibitory activity | Kinase inhibitory activity, PI3K CB [20]: No kinase inhibitory activity | Kinase inhibitory activity, PI3K CD [21]: No kinase inhibitory activity | Kinase inhibitory activity, PI3K CG [22]: No kinase inhibitory activity | Kinase inhibitory activity, RAF1 [23]: No kinase inhibitory activity
